Results as given in patent US20240415819A1, “MACROCYCLIC COMPOUNDS AS PROTEASOME SUBUNIT BETA TYPE-5 INHIBITORS” (Lead Discovery Center GmbH, priority 2021, published 2024).

Test system: hPMBC
Experiment: Chymotrypsin-like ProteasomeGlo assay in hPBMC
Format: cell-based
Conditions: Homo sapiens; read-out: Pglo hPBMC
Procedure, shortened: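 B cells isolated from human PBMC (buffy coats, density gradient, magnetic isolation). Cells treated with compound for 105 min at 37 °C, with staurosporine and DMSO included. Chymotrypsin-like proteasome activity read by luminescence with Suc-LLVY-Glo substrate to derive IC50.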

| SMILES | IC50 |
| --- | --- |
| CC(=O)N[C@H]1CC(=O)N2CCCC(CCOc3ccc(C)c(c3)CNC(=O)C(c3cnn(CCOCCOCCOCCN)c3)NC1=O)C2 (stereo partly drawn) [Compound 566, N-((12S)-9-(1-(2-(2-(2-(2-aminoethoxy)ethoxy)ethoxy)ethyl)-1H-pyrazol-4-yl)-5^4-methyl-8,11,14-trioxo-4-oxa-7,10-diaza-1(3,1)-piperidina-5(1,3)-benzenacyclotetradecaphane-12-yl)acetamide] | 100 to 500 nM |
| Cc1ccc2cc1CNC(=O)[C@H](CCc1ccccc1)NC(=O)[C@@H](NC(=O)OCc1ccccc1)CCC(=O)N1CCCC3(CC(C3)O2)C1 [Compound 301, benzyl ((7S,10S)-3^4-methyl-6,9,13-trioxo-7-phenethyl-2-oxa-5,8-diaza-14(3,1)-piperidina-3(1,3)-benzena-1(1,3)-cyclobutanatetradecaphane-10-yl)carbamate] | 1000 to 5000 nM |
| Cc1ccc2cc1CNC(=O)[C@H](CCc1ccccc1)NC(=O)[C@@H](NC(=O)OCc1ccccc1)CCCC(=O)N1CCCC3(CC(C3)O2)C1 [Compound 283, benzyl ((7S,10S)-34-methyl-6,9,14-trioxo-7-phenethyl-2-oxa-5,8-diaza-15(3,1)-piperidina-3(1,3)-benzena-1(1,3)-cyclobutanapentadecaphane-10-yl)carbamate] | 500 to 1000 nM |
| Cc1ccc2cc1CNC(=O)[C@H](CCc1ccccc1)NC(=O)[C@@H](NC(=O)CC1=NN(c3ccccc3)C(=O)C1)CC(=O)N1CCCC(CCO2)C1 (stereo partly drawn) [Compound 334, N-((9S,12S)-5^4-methyl-8,11,14-trioxo-9-phenethyl-4-oxa-7,10-diaza-1(3,1)-piperidina-5(1,3)-benzenacyclotetradecaphane-12-yl)-2-(5-oxo-1-phenyl-4,5-dihydro-1H-pyrazol-3-yl)acetamide] | 100 to 500 nM |
| Cc1ccc2cc1CNC(=O)C(CCc1cnc3nccnc3c1)NC(=O)[C@@H](NC(=O)OCc1ccccc1)CC(=O)N1CCCC(CCO2)C1 (stereo partly drawn) [Compound 505, benzyl ((12S)-5^4-methyl-8,11,14-trioxo-9-(2-(pyrido[2,3-b]pyrazin-7-yl)ethyl)-4-oxa-7,10-diaza-1(3,1)-piperidina-5(1,3)-benzenacyclotetradecaphane-12-yl)carbamate] | 100 to 500 nM |
| Cc1ccc2cc1CNC(=O)[C@H](CCc1ccccc1)NC(=O)[C@@H](NC(=O)Cc1nnc(N)[nH]1)CC(=O)N1CCCC(CCO2)C1 (stereo partly drawn) [Compound 340, 2-(5-amino-1H-1,2,4-triazol-3-yl)-N-((9S,12S)-5^4-methyl-8,11,14-trioxo-9-phenethyl-4-oxa-7,10-diaza-1(3,1)-piperidina-5(1,3)-benzenacyclotetradecaphane-12-yl)acetamide] | < 100 nM |
| CC(=O)N[C@H]1CCC(=O)N2CC3CC(Oc4ccc(C)c(c4)CNC(=O)[C@H](CCc4ccccc4)NC1=O)C3C2 (stereo partly drawn) [Compound 299, N-(3^4-methyl-6,9,13-trioxo-7-phenethyl-2-oxa-13,5,8-triaza-1(6,3)-bicyclo[3.2.0]heptana-3(1,3)-benzenacyclotridecaphane-10-yl)acetamide] | 1000 to 5000 nM |
| Cc1ccc2cc1CNC(=O)C(CCc1ccncc1)NC(=O)[C@@H](NC(=O)Cc1nnc(N)s1)CC(=O)N1CCCC(CCO2)C1 (stereo partly drawn) [Compound 342, 2-(5-amino-1,3,4-thiadiazol-2-yl)-N-((12S)-5^4-methyl-8,11,14-trioxo-9-(2-(pyridin-4-yl)ethyl)-4-oxa-7,10-diaza-1(3,1)-piperidina-5(1,3)-benzenacyclotetradecaphane-12-yl)acetamide] | < 100 nM |
| CC(=O)N[C@H]1CC(=O)N2CCCC(CCOc3ccc(C)c(c3)CNC(=O)C(Cn3c(=O)oc4ccccc43)NC1=O)C2 (stereo partly drawn) [Compound 555, N-((12S)-5^4-methyl-8,11,14-trioxo-9-((2-oxobenzo[d]oxazol-3(2H)-yl)methyl)-4-oxa-7,10-diaza-1(3,1)-piperidina-5(1,3)-benzenacyclotetradecaphane-12-yl)acetamide] | < 100 nM |
| CC(=O)c1ccc(CC(=O)N[C@H]2CC(=O)N3CCCC(CCOc4ccc(C)c(c4)CNC(=O)[C@H](CCc4ccccc4)NC2=O)C3)cc1 (stereo partly drawn) [Compound 341, 2-(4-acetylphenyl)-N-((9S,12S)-54-methyl-8,11,14-trioxo-9-phenethyl-4-oxa-7,10-diaza-1(3,1)-piperidina-5(1,3)-benzenacyclotetradecaphane-12-yl)acetamide] | < 100 nM |

Other lines, results leading:

| IC50 | SMILES |
| --- | --- |
| < 100 nM | Cc1ccc2cc1CNC(=O)[C@H](CCc1ccccc1)NC(=O)[C@@H](NC(=O)OCc1ccccc1)CC(=O)N1CC(C)CC(CCO2)C1 (stereo partly drawn) [Compound 337, benzyl ((9S,12S)-1^5,5^4-dimethyl-8,11,14-trioxo-9-phenethyl-4-oxa-7,10-diaza-1(3,1)-piperidina-5(1,3)-benzenacyclotetradecaphane-12-yl)carbamate] |
| < 100 nM | Cc1ccc2cc1CNC(=O)C(c1cnn(C)c1)NC(=O)[C@@H](NC(=O)C1CCCc3ccccc31)CC(=O)N1CCCC(CCO2)C1 (stereo partly drawn) [Compound 360, N-((12S)-5^4-methyl-9-(1-methyl-1H-pyrazol-4-yl)-8,11,14-trioxo-4-oxa-7,10-diaza-1(3,1)-piperidina-5(1,3)-benzenacyclotetradecaphane-12-yl)-1,2,3,4-tetrahydronaphthalene-1-carboxamide] |
| < 100 nM | Cc1ccc2cc1CNC(=O)[C@H](CCc1ccccc1)NC(=O)[C@@H](NC(=O)OCc1ccccc1)CCC(=O)N1CCC(CO2)C1 (stereo partly drawn) [Compound 349, benzyl ((8S,11S)-4^4-methyl-7,10,14-trioxo-8-phenethyl-3-oxa-6,9-diaza-1(3,1)-pyrrolidina-4(1,3)-benzenacyclotetradecaphane-11-yl)carbamate] |
| < 100 nM | CO[C@@H](C(=O)N[C@H]1CC(=O)N2CCCC(CCOc3ccc(C)c(c3)CNC(=O)C(c3cnn(C)c3)NC1=O)C2)c1ccccc1 (stereo partly drawn) [Compound 361, (2R)-2-methoxy-N-((12S)-5^4-methyl-9-(1-methyl-1H-pyrazol-4-yl)-8,11,14-trioxo-4-oxa-7,10-diaza-1(3,1)-piperidina-5(1,3)-benzenacyclotetradecaphane-12-yl)-2-phenylacetamide] |
| < 100 nM | Cc1ccc2cc1CNC(=O)[C@H](CCc1ccccc1)NC(=O)[C@@H](NC(=O)Cc1ccccc1C)CC(=O)N1CCCC(CCO2)C1 (stereo partly drawn) [Compound 373, N-((9S,12S)-5^4-methyl-8,11,14-trioxo-9-phenethyl-4-oxa-7,10-diaza-1(3,1)-piperidina-5(1,3)-benzenacyclotetradecaphane-12-yl)-2-(o-tolyl)acetamide] |
| < 100 nM | CC(=O)N[C@H]1CC(=O)N2CCCC(CCOc3ccc(C)c(c3)CNC(=O)C(c3cc(C)n(C)n3)NC1=O)C2 (stereo partly drawn) [Compound 561, N-((12S)-9-(1,5-dimethyl-1H-pyrazol-3-yl)-5^4-methyl-8,11,14-trioxo-4-oxa-7,10-diaza-1(3,1)-piperidina-5(1,3)-benzenacyclotetradecaphane-12-yl)acetamide] |
| < 100 nM | CC(=O)N[C@H]1CC(=O)N2CCCC(CCOc3ccc(C)c(c3)CNC(=O)C(c3cnn(-c4ccccc4)c3)NC1=O)C2 (stereo partly drawn) [Compound 559, N-((12S)-5^4-methyl-8,11,14-trioxo-9-(1-phenyl-1H-pyrazol-4-yl)-4-oxa-7,10-diaza-1(3,1)-piperidina-5(1,3)-benzenacyclotetradecaphane-12-yl)acetamide] |
| < 100 nM | Cc1ccc2cc1CNC(=O)C(CCc1cnccn1)NC(=O)[C@@H](NC(=O)C1(c3ccc(N)cc3)CC1)CC(=O)N1CCCC(CCO2)C1 (stereo partly drawn) [Compound 371, 1-(4-aminophenyl)-N-((9S,12S)-5^4-methyl-8,11,14-trioxo-9-(2-(pyrazin-2-yl)ethyl)-4-oxa-7,10-diaza-1(3,1)-piperidina-5(1,3)-benzenacyclotetradecaphane-12-yl)cyclopropane-1-carboxamide] |
| < 100 nM | COC(=O)N(CC1NC(=O)[C@@H](NC(=O)OCc2ccccc2)CC(=O)N2CCCC(CCOc3ccc(C)c(c3)CNC1=O)C2)c1ccccc1 (stereo partly drawn) [Compound 513, methyl (((12R)-12-(((benzyloxy)carbonyl)amino)-5^4-methyl-8,11,14-trioxo-4-oxa-7,10-diaza-1(3,1)-piperidina-5(1,3)-benzenacyclotetradecaphane-9-yl)methyl)(phenyl)carbamate] |
| < 100 nM | Cc1ccc2cc1CNC(=O)[C@H](CCc1ccccc1)NC(=O)[C@@H](NC(=O)Cc1cc(Cl)c(N)c(Cl)c1)CC(=O)N1CCCC(CCO2)C1 (stereo partly drawn) [Compound 320, 2-(4-amino-3,5-dichlorophenyl)-N-((9S,12S)-5^4-methyl-8,11,14-trioxo-9-phenethyl-4-oxa-7,10-diaza-1(3,1)-piperidina-5(1,3)-benzenacyclotetradecaphane-12-yl)acetamide] |
| < 100 nM | CCOC(C(=O)N[C@H]1CC(=O)N2CCCC(CCOc3ccc(C)c(c3)CNC(=O)[C@H](CCc3ccccc3)NC1=O)C2)c1ccc(N)cc1 (stereo partly drawn) [Compound 345, 2-(4-aminophenyl)-2-ethoxy-N-((9S,12S)-5^4-methyl-8,11,14-trioxo-9-phenethyl-4-oxa-7,10-diaza-1(3,1)-piperidina-5(1,3)-benzenacyclotetradecaphane-12-yl)acetamide] |
| < 100 nM | CC(=O)N[C@H]1CC(=O)N2CCCC(CCOc3ccc(C)c(c3)CNC(=O)C(c3cnn(CCC(=O)O)c3)NC1=O)C2 (stereo partly drawn) [Compound 567, 3-(4-((12S)-12-acetamido-5^4-methyl-8,11,14-trioxo-4-oxa-7,10-diaza-1(3,1)-piperidina-5(1,3)-benzenacyclotetradecaphane-9-yl)-1H-pyrazol-1-yl)propanoic acid] |
| < 100 nM | CC(=O)N[C@H]1CC(=O)N2CCCC(CCOc3ccc(C)c(c3)CNC(=O)C(CCc3cccnc3)NC1=O)C2 (stereo partly drawn) [Compound 549, N-((12S)-5^4-methyl-8,11,14-trioxo-9-(2-(pyridin-3-yl)ethyl)-4-oxa-7,10-diaza-1(3,1)-piperidina-5(1,3)-benzenacyclotetradecaphane-12-yl)acetamide] |
| < 100 nM | Cc1ccc2cc1CNC(=O)[C@@H](CCc1ccccc1)NC(=O)[C@H](NC(=O)C(C)(C)CS)CC(=O)N1CCCC(CCO2)C1 (stereo partly drawn) [Compound 348, 3-mercapto-2,2-dimethyl-N-((9S,12S)-5^4-methyl-8,11,14-trioxo-9-phenethyl-4-oxa-7,10-diaza-1(3,1)-piperidina-5(1,3)-benzenacyclotetradecaphane-12-yl)propanamide] |
